What was measured:
[1] = biological target: LBD of chemoreceptor R2 (WP_136157342.1) (Brenneria roseae, UniProt A0A2U1TV64, H128N/K136R); format: binding; settings: ITC, 20 °C, R2 LBD; Nb = no binding
Description: Plasmids for the overexpression of the different proteins were transformed into E. coli BL21(DE3). The resulting strains were grown under continuous stirring (200 rpm) at 30 °C in 2-L Erlenmeyer flasks containing 500 mL of LB medium supplemented with 50 μg/mL kanamycin. At an OD660 of 0.5, protein expression was induced by the addition of 0.1 mM isopropyl β-D-1-thiogalactopyranoside. Growth was continued at 16 °C overnight prior to cell harvesting by centrifugation at 10,000 × g for 20 min. Cell pellets were resuspended in buffer A (Additional file 2: Table S4) and subsequently broken by French press treatment at 62.5 lb/in^2. After centrifugation at 20,000 × g for 30 min, the supernatants were loaded onto 5-mL HisTrap HP columns (Amersham Biosciences) equilibrated with buffer A, and the proteins were eluted with a linear gradient of buffer B (Additional file 2: Table S4). All proteins contain a hexa-histidine tag at the N-terminal extension (Additional file 2: Table S3) and were purified at 4 °C. The purified proteins were dialyzed overnight into the corresponding analysis buffers (Additional file 2: Table S4) for immediate analysis.
All experiments were conducted on a VP microcalorimeter (Microcal, MA) at 15 °C for PacP-LBD and at 20 °C for the remaining proteins. Proteins were dialyzed into the analysis buffers specified in Additional file 2: Table S4, placed into the sample cell and titrated with aliquots of ligand solutions (1 to 10 mM) freshly prepared in dialysis buffer. The mean enthalpies measured from the injection of the ligands into the analysis buffer were subtracted from the raw titration data prior to data analysis with the MicroCal version of ORIGIN. The data were fitted with the “One binding site model” of ORIGIN.

R2 LBD (WP_136157342.1) = test: Thermal shift ligand screening of R2; format: binding, Brenneria roseae; settings: thermal shift assay, R2, arrays PM1, PM2A, PM3B, PM4A
Description: (§1) Assays were carried out on a MyIQ2 Real-Time PCR instrument (Bio-Rad, Hercules, CA, USA). Ligand solutions were prepared by dissolving the array compounds in 50 µL of Milli-Q water, which, according to the manufacturer, corresponds to a concentration of 10–20 mM. Freshly purified proteins were dialyzed into analysis buffer (Additional file 2: Table S4). Compound arrays PM1, PM2A (carbon sources), PM3B (nitrogen sources), and PM4A (phosphorus and sulfur sources) from Biolog (https://www.biolog.com/) were used. The compositions of these arrays are provided in Additional file 2: Table S1. The experiments were conducted in 96-well plates, and each assay mixture contained 20 µL of the dialyzed protein (at 80–50 µM), 2 µL of 5 × SYPRO orange (Life Technologies, Eugene, Oregon, USA), and 2.5 µL of the resuspended array compound or the equivalent amount of buffer in the ligand-free control. The samples were heated from 23 to 85 °C at a scan rate of 1 °C/min. The protein unfolding curves were monitored by detecting changes in SYPRO® Orange fluorescence. The Tm values were determined from the first derivative values of the raw fluorescence data.

R3 LBD (WP_006464688.1) = test: Thermal shift ligand screening of R3; format: binding, Herbaspirillum frisingense; settings: thermal shift assay, R3, arrays PM1, PM2A, PM3B, PM4A
Description: as §1

[2] = system: Pectobacterium atrosepticum SCRI1043; test: Growth experiment, sole carbon source; format: cell-based; settings: PFM9 minimal medium, 5 mM ligand, 30 °C, 48 h
Description: P. atrosepticum SCRI1043 was cultured overnight in phosphate-free M9-based medium (PFM9) supplemented with 20 mM glucose as the carbon source and 500 µM inorganic phosphate as the phosphate source. Cultures were washed and then diluted to an OD600 of 0.02 in PFM9 supplemented with different PacP ligands as the sole carbon or phosphorous source at a final concentration of 5 mM. Subsequently, 200 µL aliquots of these cultures were transferred into microwell plates, which were subsequently grown at 30 °C on a Bioscreen microbiological growth analyzer (Oy Growth Curves Ab Ltd., Helsinki, Finland) for 48 h.

Chain of LBD of chemoreceptor R2 (WP_136157342.1) (A0A2U1TV64 28-178 H128N/K136R): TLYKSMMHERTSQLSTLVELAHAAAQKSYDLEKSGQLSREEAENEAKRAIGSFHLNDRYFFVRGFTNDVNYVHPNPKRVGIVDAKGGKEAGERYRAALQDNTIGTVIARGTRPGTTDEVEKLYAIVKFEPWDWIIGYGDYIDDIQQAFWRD

Compound: O=P(O)(O)OCC(O)CO (stereo not shown) [glycerol 3-phosphate]
- KD [1]: showed binding
- Tm change (R2 LBD (WP_136157342.1)): increases in the Tm
- Tm change (R3 LBD (WP_006464688.1)): significant increases in the Tm
- growth as sole carbon source [2]: supported growth
